“And” between values parts separate entries of the source, which are not always exact repeats. Equal values may be shown once.
Test system: 324938-238-R-J1-PDC complex spheroid growth, % test/control
Test: Anticancer human tumor 324938-238-R-J1-PDC patient-derived bladder carcinoma cell line growth inhibition [AhR]
Details: for viability, T/C: stronger effect = lower value
Text: Multicellular complex tumor spheroid response to aryl hydrocarbon receptor antagonists in combination with a variety of drugs and investigational agents in selected tumor cell lines
The current study was undertaken to assess response to aryl hydrocarbon receptor antagonists in combination with standard-of-care drugs and investigational agents in solid tumor complex spheroid models. Complex spheroids include a stromal component modeled by human endothelial cells (HUVEC) and fibroblasts modeled by human mesenchymal stem cells (MSCs). The concentration ranges selected for each drug and investigational agent were based upon clinically achievable concentrations if the clinical Cmax of the agent was known.
Compounds. The drugs and investigational agents: BAY 2416964 (NSC825713), GNF351 (NSC835774), CH-223191 (NSC835775), CPI-455 (NSC825282), aza-TdCyd (NSC777586), decitabine (NSC127716), belinostat (NSC758774), entinostat (NSC756642), pevonedistat (NSC761192), tazemetostat (NSC777109), talazoparib (NSC765396), olaparib (NSC753686), selinexor (NSC780203), nedisertib (M3814, NSC802822), bortezomib (NSC756655), venetoclax (NSC766270), doxorubicin (NSC123127), elimusertib (BAY189344, NSC800525), ceralasertib (AZD6738, NSC777638), TAK-243 (NSC785004), alisertib (NSC759677), etoposide (NSC141540), topotecan (NSC609699), eribulin (NSC707389), gemcitabine (NSC613327), carboplatin (NSC241240), cisplatin (NSC119875), and SN-38 (NSC673596) were obtained from the National Cancer Institute (NCI) Developmental Therapeutics Program Chemical Repository (32). The FDA-approved anticancer drug set is available from the Developmental Therapeutics Program at https://dtp.cancer.gov/organization/dscb/obtaining/available plates.htm. […] The stock solutions were prepared in dimethyl sulfoxide (DMSO, Sigma-Aldrich, St. Louis, MO, cat. D2650), except for the platinum compounds which were prepared in saline (Quality Biological, Gaithersburg, MD, cat. 114-055-101), at 800-fold the tested concentration and stored at -70 degrees C prior to their use. All drugs and investigational agents were tested over a range starting from a high concentration at or near the clinical Cmax and decreasing in half-log increments. If the clinical Cmax for an agent had not been determined, the highest concentration tested was 10 microM (Table 1).
Cell Culture. All cells were maintained in an incubator at 37 degrees C and 5% CO2 with 95% humidity. The PDC lines were cultured according to standard operating procedures established by the NCI PDMR (https://pdmr.cancer.gov). Briefly, all PDCs were thawed and cultured in Matrigel-coated flasks prepared with a working solution of 1X Ham's F-12 nutrient mix, without supplementation (Invitrogen, Waltham, MA, cat. 11765054), 100 U/mL penicillin-streptomycin (Invitrogen, cat. 15140122), and 2.5% Matrigel (Corning Inc., Corning, NY, cat. 354248) for the first three passages. All PDCs were cultured in complete DMEM/F-12 media containing advanced DMEM/F-12 (Invitrogen, cat. 12634028), 4.9% defined fetal bovine serum, heat inactivated (HyClone Laboratories Inc., Logan, UT, cat. SH30070.03HI), 389 ng/mL hydrocortisone (Sigma-Aldrich, cat. H4001), 9.7 ng/mL human EGF recombinant protein (Invitrogen, cat. PHG0313), 23.4 microg/mL adenine (Sigma-Aldrich, cat. A2786), 97.3 U/mL penicillin-streptomycin (Invitrogen, cat. 15140122), 1.9 mM L-glutamine (Invitrogen, cat. 25030081), and 9.7 microM Y-27632 dihydrochloride (Tocris Bioscience, Bristol, United Kingdom, cat. 1254). The PDCs were cultured in complete DMEM/F12 media without 10 microM Y-27632 dihydrochloride for at least two passages prior to the screen. The established cell lines NCI-H1341 and […] were cultured in DMEM/F-12, HEPES (Invitrogen, cat. 11330032), 5% defined fetal bovine serum (HyClone Laboratories Inc., cat. SH30070.03), ITS premix universal culture supplement [insulin (5 microg/mL), transferrin (5 microg/mL), and selenious acid (5 ng/mL)] […]

[1] = curve of first compound, second compound 0.1 µM
[2] = curve of first compound, second compound 0.316 µM
[3] = curve of first compound, second compound 1 µM
[4] = curve of first compound, second compound 3.16 µM
[5] = curve of first compound, second compound 10 µM
[6] = second compound 0.1 µM, first compound 0.00316 µM
[7] = second compound 0.1 µM, first compound 0.01 µM
[8] = second compound 0.1 µM, first compound 0.0316 µM
[9] = second compound 0.1 µM, first compound 0.1 µM
[10] = second compound 0.1 µM, first compound 0.316 µM
[11] = second compound 0.1 µM, first compound 1 µM
[12] = second compound 0.316 µM, first compound 0.00316 µM
[13] = second compound 0.316 µM, first compound 0.01 µM
[14] = second compound 0.316 µM, first compound 0.0316 µM
[15] = second compound 0.316 µM, first compound 0.1 µM
[16] = second compound 0.316 µM, first compound 0.316 µM
[17] = second compound 0.316 µM, first compound 1 µM
[18] = second compound 1 µM, first compound 0.00316 µM
[19] = second compound 1 µM, first compound 0.01 µM
[20] = second compound 1 µM, first compound 0.0316 µM
[21] = second compound 1 µM, first compound 0.1 µM
[22] = second compound 1 µM, first compound 0.316 µM
[23] = second compound 1 µM, first compound 1 µM
[24] = second compound 3.16 µM, first compound 0.00316 µM
[25] = second compound 3.16 µM, first compound 0.01 µM
[26] = second compound 3.16 µM, first compound 0.0316 µM
[27] = second compound 3.16 µM, first compound 0.1 µM
[28] = second compound 3.16 µM, first compound 0.316 µM
[29] = second compound 3.16 µM, first compound 1 µM
[30] = second compound 10 µM, first compound 0.00316 µM
[31] = second compound 10 µM, first compound 0.01 µM
[32] = second compound 10 µM, first compound 0.0316 µM
[33] = second compound 10 µM, first compound 0.1 µM
[34] = second compound 10 µM, first compound 0.316 µM
[35] = second compound 10 µM, first compound 1 µM
[36] = second compound 0.1 µM, first compound 3.16 µM
[37] = second compound 0.1 µM, first compound 10 µM
[38] = second compound 0.316 µM, first compound 3.16 µM
[39] = second compound 0.316 µM, first compound 10 µM
[40] = second compound 1 µM, first compound 3.16 µM
[41] = second compound 1 µM, first compound 10 µM
[42] = second compound 3.16 µM, first compound 3.16 µM
[43] = second compound 3.16 µM, first compound 10 µM
[44] = second compound 10 µM, first compound 3.16 µM
[45] = second compound 10 µM, first compound 10 µM
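Note: spheroids exposed to agents for seven days before viability read.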

| Compound | IC50 [1] [nM] | IC50 [2] [nM] | IC50 [3] [nM] | IC50 [4] [nM] | IC50 [5] [nM] | viability, T/C [8] [%] | viability, T/C [9] [%] | viability, T/C [10] [%] | viability, T/C [11] [%] | viability, T/C [14] [%] | viability, T/C [15] [%] | viability, T/C [16] [%] | viability, T/C [17] [%] | viability, T/C [20] [%] | viability, T/C [21] [%] | viability, T/C [22] [%] | viability, T/C [23] [%] | viability, T/C [26] [%] | viability, T/C [27] [%] | viability, T/C [28] [%] | other results |
| --- | --- | --- | --- | --- | --- | --- | --- | --- | --- | --- | --- | --- | --- | --- | --- | --- | --- | --- | --- | --- | --- |
| CC1COCCN1c1cc(-c2ccnn2C)c2ccnc(-c3ccn[nH]3)c2n1 (configuration not stated) + CC(CO)NC(=O)c1cc(-c2ccc(Cl)cc2)nn(-c2cnn(C)c2)c1=O | 81.3 | 65 | 67.1 | 36.7 | 22.5 | 75.2 | 44.6 | 29.7 | 18.6 | 72.7 | 36.6 | 26.4 | 21.6 | 72.8 | 37.7 | 24.1 | 20.4 | 51 | 31.1 | 26.7 | viability, T/C [6]: 97%; viability, T/C [7]: 110%; viability, T/C [12]: 88.6%; viability, T/C [13]: 102%; viability, T/C [18]: 88.7%; viability, T/C [19]: 86.6%; viability, T/C [24]: 75.9%; viability, T/C [25]: 79%; viability, T/C [29]: 18.7%; viability, T/C [30]: 62.6%; viability, T/C [31]: 63.7%; viability, T/C [32]: 43.9%; viability, T/C [33]: 29%; viability, T/C [34]: 24.8%; viability, T/C [35]: 20.1% |
| CC1COCCN1c1cc(-c2ccnn2C)c2ccnc(-c3ccn[nH]3)c2n1 (configuration not stated) + Cc1cncc(-c2nc(NCCc3c[nH]c4ccccc34)c3ncn(C(C)C)c3n2)c1 | > 1000 | > 1000 | > 1000 | > 1000 | < 3.16 | 112 | 89.6 | 81.2 | 54.9 | 114 | 81.3 | 81.6 | 70.2 | 137 | 88 | 72.2 | 53.3 | 77.6 | 70.6 | 67.8 | viability, T/C [6]: 87.9%; viability, T/C [7]: 123%; viability, T/C [12]: 121%; viability, T/C [13]: 150%; viability, T/C [18]: 114%; viability, T/C [19]: 122%; viability, T/C [24]: 67.2%; viability, T/C [25]: 60.2%; viability, T/C [29]: 72.2%; viability, T/C [30]: 4.75%; viability, T/C [31]: 5.66%; viability, T/C [32]: 2.57%; viability, T/C [33]: 2.16%; viability, T/C [34]: 2.35%; viability, T/C [35]: 5.11% |
| NS(=O)(=O)OCC1CC(n2ccc3c(NC4CCc5ccccc54)ncnc32)CC1O (configuration not stated) + Cc1cncc(-c2nc(NCCc3c[nH]c4ccccc34)c3ncn(C(C)C)c3n2)c1 | 2650 | 2480 | 2970 | 8510 | < 31.6 | 122 | 101 | 93.4 | 71.9 | 99.7 | 104 | 99.9 | 71 | 82.3 | 95.5 | 95.3 | 97.6 | 80 | 114 | 140 | viability, T/C [36]: 42.9%; viability, T/C [37]: 25.7%; viability, T/C [38]: 46.4%; viability, T/C [39]: 32.5%; viability, T/C [40]: 47.5%; viability, T/C [41]: 29.1%; viability, T/C [29]: 103%; viability, T/C [42]: 64.2%; viability, T/C [43]: 47.5%; viability, T/C [32]: 7.19%; viability, T/C [33]: 15.3%; viability, T/C [34]: 19%; viability, T/C [35]: 23%; viability, T/C [44]: 14.3%; viability, T/C [45]: 7.16% |
| Nc1ccn(C2OC(CO)C(O)C2(F)F)c(=O)n1 (configuration not stated) + Cc1ccccc1N=Nc1ccc(NC(=O)c2ccnn2C)c(C)c1 | 37.1 | < 31.6 | < 31.6 | < 31.6 | < 31.6 | 53.1 | 32.3 | 15.5 | 14.1 | 47.2 | 24.7 | 15.4 | 12.3 | 43.7 | 34.1 | 16.8 | 13.2 | 46.6 | 32.8 | 15.7 | viability, T/C [36]: 10.4%; viability, T/C [37]: 8.56%; viability, T/C [38]: 10.3%; viability, T/C [39]: 8.15%; viability, T/C [40]: 9.31%; viability, T/C [41]: 7.14%; viability, T/C [29]: 12.6%; viability, T/C [42]: 10.9%; viability, T/C [43]: 7.52%; viability, T/C [32]: 44.9%; viability, T/C [33]: 34.8%; viability, T/C [34]: 19.2%; viability, T/C [35]: 14.3%; viability, T/C [44]: 13.1%; viability, T/C [45]: 8.08% |
| Cn1ncnc1C1c2n[nH]c(=O)c3cc(F)cc(c23)NC1c1ccc(F)cc1 (configuration not stated) | – | – | – | – | – | – | – | – | – | – | – | – | – | – | – | – | – | – | – | – | viability, T/C (compound 0.000316 µM): 107% and 101% and 111%; viability, T/C (compound 0.001 µM): 100% and 105% and 98%; viability, T/C (compound 0.00316 µM): 92.3% and 101% and 90.6%; viability, T/C (compound 0.01 µM): 97.1% and 74.3% and 87.5%; viability, T/C (compound 0.0316 µM): 98% and 79.1% and 61.1%; viability, T/C (compound 0.1 µM): 89.5% and 65.1% and 46.1%; IC50 (curve of compound): > 100 nM and 78.1 nM |

— PubChem BioAssay AID1918995 (Molecular Pharmacology Branch, DTP, NCI, 2023)
